Test results from US8394786B2, “Quinazoline derivatives” (Janssen Pharmaceutica N.V., priority 2003, dated 2013).

What was measured:
[1] = tested on: SKOV3 cells; experiment: Serum starved proliferation assay on the ovarian carcinoma SKOV3 cells (C3); assay type: cell-based; conditions: Homo sapiens, SK-OV-3, 72 h, EGF stimulated (100 ng/ml, 72 hours, serum free) or 72 hours with compounds; MTT cell viability assay; read-out: SKOV3 cell (C3): pIC50 (converted)
How it was run: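 SKOV3 cells grown 24 h in 10% FCS, then treated with compound under serum-free conditions (37 °C, 5% CO2) and stimulated 72 h with EGF at 100 ng/ml final; read-out by MTT viability. Alternative format: compound for 72 h after the same 24 h FCS step, also by MTT.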

[2] = target: EGFR (Homo sapiens, UniProt P00533); experiment: In vitro inhibition of EGFR, Flash Plate or glass-fiber filter technology (C2); assay type: biochemical; set-up: 0.5 μg EGFR-kinase domain/well; conditions: EGFR-kinase domain, 5.0 μM unlabeled ATP, read-out: Kinase activity.(C2): pIC50 (converted)
EGFR, sequence (P00533 712-979 limits assumed): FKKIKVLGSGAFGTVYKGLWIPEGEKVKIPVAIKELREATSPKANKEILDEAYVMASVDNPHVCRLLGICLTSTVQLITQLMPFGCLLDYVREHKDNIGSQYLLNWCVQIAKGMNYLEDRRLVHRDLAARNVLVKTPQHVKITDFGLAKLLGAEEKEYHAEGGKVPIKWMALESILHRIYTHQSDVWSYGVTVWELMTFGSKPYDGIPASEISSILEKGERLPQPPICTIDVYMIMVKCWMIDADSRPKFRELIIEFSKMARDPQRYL
How it was run: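 EGFR kinase domain (0.5 μg/well) phosphorylated poly(GT) with 5.0 μM ATP plus AT^33P, dose response 1·10^−6 to 1·10^−10 M. Flash Plate: biotin-poly(GT), Tris pH 8.0, 30° C, 60 min, scintillation counting. Filter: Tris pH 7.5 with MnCl2, 25° C, 10 min, 33P counted on glass-fiber filter by phosphorimaging.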

Row | Structure (SMILES) | IC50 [1] [nM] | IC50 [2] [nM]
1 | COc1cc2ncnc3c2cc1OCC(=O)N1CC(O)CC1C(=O)NCc1ccc(Cl)cc1N3 (stereo not drawn) [Compound 133, 9,11-ethanediylidenepyrimido[4,5-b]pyrrolo[1,2-i][6,1,9,12]benzoxatriazacyclopentadecine-14,19(5H,13H)-dione, 3-chloro-16,17,18,18a,20,21-hexahydro-17-hydroxy-22-methoxy-] | 7940 | 1580
2 | COc1cc2ncnc3c2cc1OCCCCC(=O)N1CCCC1C(=O)NCc1ccc(Cl)cc1N3 (stereo not drawn) [Compound 134, 4,6-ethanediylidene-8H-pyrimido[4,5-b]pyrrolo[1,2-l][6,1,12,15]benzoxatriazacyclooctadecine-12,17(18H)-dione, 22-chloro-9,10,11,14,15,16,16a,19,24-nonahydro-25-methoxy-] | 794 | 398
3 | COc1cc2ncnc3c2cc1OCC(=O)NC(C)(C)C(=O)NCCc1ccc(Cl)cc1N3 [Compound 135, 4,6-ethanediylidene-8H-pyrimido[4,5-b][6,1,9,12]benzoxatriazacyclohexadecine-9,12-dione, 18-chloro-10,11,13,14,15,20-hexahydro-21-methoxy-11,11-dimethyl-] | 1000 | 3980
4 | COc1cc2ncnc3c2cc1OCCCCC(=O)NC(CC(C)C)C(=O)NCc1ccc(Cl)cc1N3 (stereo not drawn) [Compound 136, 4,6-ethanediylidene-8H-pyrimido[4,5-b][6,1,12,15]benzoxatriazacyclooctadecine-12,15(16H)-dione, 20-chloro-9,10,11,13,14,17,22-heptahydro-23-methoxy-14-(2-methylpropyl)-] | 251 | 631
5 | COc1cc2ncnc3c2cc1OCCCCC(=O)NC(C)(C)C(=O)NCc1ccc(Cl)cc1N3 [Compound 137, 4,6-ethanediylidene-8H-pyrimido[4,5-b][6,1,12,15]benzoxatriazacyclooctadecine-12,15(16H)-dione, 20-chloro-9,10,11,13,14,17,22-heptahydro-23-methoxy-14,14-dimethyl-] | 251 | 251
6 | COc1cc2ncnc3c2cc1OCCCCC(=O)NC(Cc1ccccc1)C(=O)NCc1ccc(Cl)cc1N3 (stereo not drawn) [Compound 138, 4,6-ethanediylidene-8H-pyrimido[4,5-b][6,1,12,15]benzoxatriazacyclooctadecine-12,15(16H)-dione, 20-chloro-9,10,11,13,14,17,22-heptahydro-23-methoxy-14-(phenylmethyl)-] | 631 | 2000
7 | COc1cc2ncnc3c2cc1OCC(=O)N1CCCC1C(=O)NCCc1ccc(Cl)cc1N3 (stereo not drawn) [Compound 140, 1,21-ethanediylidene-5H-pyrimido[4,5-b]pyrrolo[1,2-i][6,1,9,12]benzoxatriazacyclohexadecine-13,18(19H)-dione, 7-chloro-10,11,12,13a,14,15,16-heptahydro-23-methoxy-] | 200 | 200
8 | COc1cc2ncnc3c2cc1OCC(=O)NC(CC(C)C)C(=O)NCCc1ccc(Cl)cc1N3 (stereo not drawn) [Compound 141, 4,6-ethanediylidene-8H-pyrimido[4,5-b][6,1,9,12]benzoxatriazacyclohexadecine-9,12-dione, 18-chloro-10,11,13,14,15,20-hexahydro-21-methoxy-11-(2-methylpropyl)-] | 1580 | 794
9 | COc1cc2ncnc3c2cc1OCC(=O)NC(C(C)O)C(=O)NCCc1ccc(Cl)cc1N3 (stereo not drawn) [Compound 142, 4,6-ethanediylidene-8H-pyrimido[4,5-b][6,1,9,12]benzoxatriazacyclohexadecine-9,12-dione, 18-chloro-10,11,13,14,15,20-hexahydro-11-(1-hydroxyethyl)-21-methoxy-] | 631 | 100
10 | COc1cc2ncnc3c2cc1OCCCC(=O)NC(CC(C)C)C(=O)NCc1ccc(Cl)cc1N3 (stereo not drawn) [Compound 143, 4,6-ethanediylidenepyrimido[4,5-b][6,1,11,14]benzoxatriazacycloheptadecine-11,14(8H,15H)-dione, 19-chloro-9,10,12,13,16,21-hexahydro-22-methoxy-13-(2-methylpropyl)-] | 200 | 501
11 | COc1cc2ncnc3c2cc1OCCCC(=O)NC(C)(C)C(=O)NCc1ccc(Cl)cc1N3 [Compound 144, 4,6-ethanediylidenepyrimido[4,5-b][6,1,11,14]benzoxatriazacycloheptadecine-11,14(8H,15H)-dione, 19-chloro-9,10,12,13,16,21-hexahydro-22-methoxy-13,13-dimethyl-] | 126 | 158
12 | COc1cc2ncnc3c2cc1OCCCC(=O)NC(Cc1ccccc1)C(=O)NCc1ccc(Cl)cc1N3 (stereo not drawn) [Compound 145, 4,6-ethanediylidenepyrimido[4,5-b][6,1,11,14]benzoxatriazacycloheptadecine-11,14(8H,15H)-dione, 19-chloro-9,10,12,13,16,21-hexahydro-22-methoxy-13-(phenylmethyl)-] | 251 | 200
13 | COc1cc2ncnc3c2cc1OCCCC(=O)NC(C(C)O)C(=O)NCc1ccc(Cl)cc1N3 (stereo not drawn) [Compound 146, 4,6-ethanediylidenepyrimido[4,5-b][6,1,11,14]benzoxatriazacycloheptadecine-11,14(8H,15H)-dione, 19-chloro-9,10,12,13,16,21-hexahydro-13-(1-hydroxyethyl)-22-methoxy-] | 631 | 200
14 | COc1cc2ncnc3c2cc1OCCCCC(=O)NC(C(C)O)C(=O)NCc1ccc(Cl)cc1N3 (stereo not drawn) [Compound 147, 4,6-ethanediylidene-8H-pyrimido[4,5-b][6,1,12,15]benzoxatriazacyclooctadecine-12,15(16H)-dione, 20-chloro-9,10,11,13,14,17,22-heptahydro-14-(1-hydroxyethyl)-23-methoxy-] | 251 | 126
15 | COc1cc2ncnc3c2cc1OCC(=O)NC(CO)C(=O)NCCc1ccc(Cl)cc1N3 (stereo not drawn) [Compound 148, 4,6-ethanediylidene-8H-pyrimido[4,5-b][6,1,9,12]benzoxatriazacyclohexadecine-9,12-dione, 18-chloro-10,11,13,14,15,20-hexahydro-11-(hydroxymethyl)-21-methoxy-] | 10000 | 251
16 | COc1cc2ncnc3c2cc1OCC(=O)N1CC(O)CC1C(=O)NCCc1ccc(Cl)cc1N3 (stereo not drawn) [Compound 149, 1,21-ethanediylidene-5H-pyrimido[4,5-b]pyrrolo[1,2-i][6,1,9,12]benzoxatriazacyclohexadecine-13,18(19H)-dione, 7-chloro-10,11,12,13a,14,15,16-heptahydro-15-hydroxy-23-methoxy-] | 1580 | 126
17 | COc1cc2ncnc3c2cc1OCC(=O)NCC(=O)NCc1ccc(Cl)cc1N3 [Compound 151, 4,6-ethenopyrimido[4,5-b][6,1,9,12]benzoxatriazacyclopentadecine-9,12(8H,13H)-dione, 17-chloro-10,11,14,19-tetrahydro-20-methoxy-] | 10000 | 3160
18 | COc1cc2ncnc3c2cc1OCC(=O)NCCC(=O)NCc1ccc(Cl)cc1N3 [Compound 152, 4,6-etheno-8H-pyrimido[4,5-b][6,1,9,13]benzoxatriazacyclohexadecine-9,13(10H,14H)-dione, 18-chloro-11,12,15,20-tetrahydro-21-methoxy-] | 10000 | 31.6
19 | COc1cc2ncnc3c2cc1OCCCC(=O)NCC(=O)NCc1ccc(Cl)cc1N3 [Compound 153, 4,6-ethenopyrimido[4,5-b][6,1,11,14]benzoxatriazacycloheptadecine-11,14(8H,15H)-dione, 19-chloro-9,10,12,13,16,21-hexahydro-22-methoxy-] | 794 | 15.8
20 | COc1cc2ncnc3c2cc1OCCCC(=O)NCCCC(=O)NCc1ccc(Cl)cc1N3 [Compound 154, 4,6-ethenopyrimido[4,5-b][6,1,11,16]benzoxatriazacyclononadecine-11,16(8H,17H)-dione, 21-chloro-9,10,12,13,14,15,18,23-octahydro-24-methoxy-] | 2510 | 39.8
21 | COc1cc2ncnc3c2cc1OCCCC(=O)NCCC(=O)NCc1ccc(Cl)cc1N3 [Compound 155, 4,6-etheno-8H-pyrimido[4,5-b][6,1,11,15]benzoxatriazacyclooctadecine-11,15(12H,16H)-dione, 20-chloro-9,10,13,14,17,22-hexahydro-23-methoxy-] | 1000 | 316
22 | COc1cc2ncnc3c2cc1OCC(=O)NCCCC(=O)NCc1ccccc1N3 [Compound 158, 4,6-ethanediylidenepyrimido[4,5-b][6,1,9,14]benzoxatriazacycloheptadecine-9,14(8H,15H)-dione, 10,11,12,13,16,21-hexahydro-22-methoxy-] | 10000 | 5010
23 | COc1cc2ncnc3c2cc1OCC(=O)N(C)CC(=O)NCc1ccc(Cl)cc1N3 [Compound 159, 4,6-ethanediylidenepyrimido[4,5-b][6,1,9,12]benzoxatriazacyclopentadecine-9,12(8H,13H)-dione, 17-chloro-10,11,14,19-tetrahydro-20-methoxy-10-methyl-] | 2000 | 316
24 | COc1cc2ncnc3c2cc1OCC(=O)NCC(=O)NCCc1ccc(Cl)cc1N3 [Compound 160, 4,6-ethanediylidene-8H-pyrimido[4,5-b][6,1,9,12]benzoxatriazacyclohexadecine-9,12-dione, 18-chloro-10,11,13,14,15,20-hexahydro-21-methoxy-] | 631 | 63.1
